According to PubChem BioAssay AID179 (DTP/NCI, 2004):
pEC50, pIC50: −log10 of the molar value. Where “and” joins values, the source holds several entries; their conditions need not be identical. Identical values can stand only once. Calls of active or inactive are those of the source.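 The calls were made as follows: active = compounds giving half or more protection of infected cells from virus-caused growth loss, again on retest; inactive = the rest.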 Where a SMILES comes first, the peptide text is derived from it.

Test system: CEM cells HIV-1 protection, formazan growth assay
Test: NCI AIDS Antiviral Assay
Conditions: for pIC50: measured here: growth of uninfected CEM cells
Procedure, shortened: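 Screen of anti-HIV-1 activity in human CEM cells using a formazan-based growth measurement at five drug concentrations. Hits with 50% or greater protection were repeated, and confirmation required reproducible complete protection.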

Row | Compound | pEC50 | pIC50 | outcome
1 | COC(=O)c1[nH]c(=O)c(C#N)c(C(=O)OC)c1C(=O)/C=C/c1ccccc1 | < 4.29 | < 4.29 | 
2 | O=S1C(=c2ccc(=C3Sc4ccccc4S3)cc2)Sc2ccccc21 (stereo unspecified) |  |  | inactive
3 | Clc1ccc(Nc2nc3ccccc3nc2-c2cccs2)cc1Cl | < 4.85 | < 4.85 | 
4 | O=[N+]([O-])C1C=Nc2ccccc2N=C1 | < 3.70 | < 3.70 | 
5 | CCOC(=O)c1cn(C)c2c1C(=O)C(C(=O)OCC)CC(=O)N2 (stereo unspecified) | < 3.54 | 3.75 | 
6 | COC(=O)N1CCC(Sc2ccccc2)C2(CCSc3ccccc3)CCC=C12 (stereo unspecified) | < 4.91 | < 4.91 | 
7 | COC(=O)C1=C(C(=O)OC)NC2=C(C=N1)CCC2 | < 3.42 | < 3.42 | 
8 | c1ccc(CNc2ccc3[nH]c4cnccc4c3c2)cc1 | < 3.60 | 4.44 | 
9 | CO[C@@H]1/C=C\C=C(/C)C(=O)NC2=CC(=O)C(NCCN(C)C)=C(C[C@@H](C)C[C@@H](OC)[C@@H](O)[C@H](C)/C=C(\C)[C@H]1OC(N)=O)C2=O | < 5.70 | 6.99 | 
10 | O=C1C2C=CC(C3C=CC2N(Cc2ccccc2)C3=O)N1Cc1ccccc1 |  |  | inactive
11 | Cc1cnc2c(c1)C(=O)N(c1ccc(Br)cc1)S2(=O)=O | < 3.70 | 4.23 | 
12 | CCN(CCN(CC)C(=O)Nc1ccccc1)C(=O)Nc1ccccc1 | < 3.70 | < 3.70 | 
13 | COC(=O)[C@H](Cc1cn(C(c2ccccc2)(c2ccccc2)c2ccccc2)cn1)NCc1cc(N(C)C)cc(CN[C@@H](Cc2cn(C(c3ccccc3)(c3ccccc3)c3ccccc3)cn2)C(=O)OC)n1 | < 4.00 | 5.23 | 
14 | N#Cc1nc(C(F)(F)F)oc1N |  |  | inactive
15 | Cc1nc(Nc2ccc(Cl)cc2)sc1C(=O)Nc1cccc2c(=O)[nH][nH]c(=O)c12 | < 4.77 | < 4.77 | 
16 | O=c1c2cccc3c4ccccc4c4sc5ccccc5n1-c4c23 | < 4.94 | < 4.94 | 
17 | O=C1NC2(CCCC2)C(=O)N2CCCC12 (stereo unspecified) | < 3.89 | < 3.89 | 
18 | Cn1c(=S)[nH]c(N)c(Cc2ccccc2)c1=O | < 3.70 | 4.19 | 
19 | CC(C)CC1C(=O)NCCC(NC(=O)C(Cc2ccc(OC(C)(C)C)cc2)NC(=O)OC(C)(C)C)C(=O)NC(Cc2ccccc2)C(=O)NC(Cc2ccccc2)NC1=O (stereo unspecified) | < 4.20 | 5.14 | 
20 | Cc1cccc(C(C)(C)C)c1NC(=O)C(=O)Cc1nc2ccccc2s1 |  |  | inactive
21 | OC(CCN1CCOCC1)(c1cccc(Cl)c1)C1CCCCC1 (stereo unspecified) | < 3.70 | 4.38 | 
22 | CCP(=O)(OC)C1=CCN(C(=O)OCC[Si](C)(C)C)CC1 (stereo unspecified) | < 3.70 | < 3.70 | 
23 | CCOC(=O)/C(=C/c1cccc(OC)c1)N(CC)CC | < 3.74 | < 3.74 | 
24 | CC(=O)C(CN(Cc1ccccc1)Cc1ccccc1)C(c1ccccc1)c1c(O)c2ccccc2oc1=O (stereo unspecified) | < 3.77 | < 4.00 | 
25 | CC1(C)OCC(C2OC(OC(=O)c3ccc([N+](=O)[O-])cc3)C3OC(C)(C)OC23)O1 (stereo unspecified) |  |  | inactive
26 | O=C(NCc1ccccc1Cl)c1c(O)c2ccccc2[nH]c1=O | < 3.70 | < 3.70 | 
27 | c1ccc2c(c1)N=C(c1cccc3ccccc13)CC(c1cccc3ccccc13)S2 (stereo unspecified) | < 5.60 | < 5.60 | 

Row | Compound | pEC50 | pIC50 | outcome
28 | c1ccc(CN2CCC(Nc3ccccc3)(c3nnnn3Cc3ccccc3)CC2)cc1 | < 3.70 | 4.48 | 
29 | CCOC(=O)[C@H]1Nc2ccccc2C2c3ccccc3CC21 (stereo partly specified) | < 4.19 | < 4.19 | 
30 | Cc1cc(N=Nc2ccc(NC(=O)c3ccc(N)cc3)cc2C)ccc1N=Nc1ccc2c(O)c(N=Nc3ccc(S(=O)(=O)O)cc3)c(S(=O)(=O)O)cc2c1 | 4.82 | 3.98 | 
31 | N#CC(C(=O)CCCC(=O)Nc1ccc(Cl)cc1Cl)c1ccccc1 (stereo unspecified) | < 3.18 | < 3.18 | 
32 | COc1ccc(OC)c(/C=C/c2ccccc2)c1 | 7.20 | 3.96 | 
33 | CC1(C)CCC(C)(C)c2cc(NC(=O)c3ccc(C(=O)O)cc3)ccc21 | < 3.70 | 4.02 | 
34 | COc1ccc(CSc2nc3ccccc3nc2-c2cccs2)cc1 | < 5.40 | < 5.40 | 
35 | O=C1CC(c2ccc(O)c(O)c2)c2c(cc(O)c3c2O[C@H](c2ccc(O)c(O)c2)[C@H](O)C3)O1 (stereo partly specified) | < 3.70 | 4.50 | 
36 | CC1CCC2C(C(=O)O[C@H]3C4C=CO[C@@H](OC5OC(CO)C(O)C(O)C5O)C4[C@@]4(CO)O[C@@H]34)=CO[C@@H](OC3OC(CO)C(O)C(O)C3O)C12 (stereo partly specified) | < 3.70 | < 3.70 | 
37 | CNc1ccc(OC)cc1S(=O)(=O)c1ccccc1[N+](=O)[O-] | 3.83 | 3.74 | 
38 | O=C1c2ccccc2C(=O)c2sc(Nc3ccc(Cl)cc3)nc21 | < 4.96 | 5.33 | 
39 | COc1cccc(/C=C/c2nccc3ccccc23)c1OC | < 3.70 | 4.89 | 
40 | CCOC(=O)NC(=S)NC(C)c1ccccc1 (stereo unspecified) | < 3.70 | 3.94 | 
41 | COP(=O)(OC)/C(=C/c1c[nH]c2ccccc12)C(=O)O | < 3.70 | < 3.70 | 
42 | CN(C)CCSc1cccc(-c2cc(-c3cccc(SCCN(C)C)c3)nc(SCCN(C)C)n2)c1 | < 3.34 | 6.15 | 
43 | C#CCN1C(=O)c2ccccc2S1(=O)=O.[C-]#[O+].[C-]#[O+].[C-]#[O+].[C-]#[O+].[C-]#[O+].[C-]#[O+].[Co].[Co] | < 3.70 | 5.15 | 
44 | FC(F)(F)C[P+](c1ccccc1)(c1ccccc1)c1ccccc1 | < 3.70 | 4.33 | 
45 | CC1(C)CC(=O)c2c(nc3c(ccc4ccccc43)c2-c2ccc(NC(=O)CCCCCCCCC(=O)Nc3ccc(-c4c5c(nc6c4ccc4ccccc46)CC(C)(C)CC5=O)cc3)cc2)C1 | < 4.00 | < 4.00 | 
46 | COc1ccccc1OCC(Cn1c(=O)nc(-c2ccccc2)c2cc(Cl)ccc21)OC(N)=O (stereo unspecified) | < 4.55 | < 4.55 | 
47 | O=C(O)CCSC(=O)Nc1ccccc1F |  |  | inactive
48 | CC(=O)N(CCc1ccccc1)C(C#N)c1ccccc1 (stereo unspecified) | < 3.70 | < 3.70 | 
49 | COc1ccc(C2SC(=S)N(Cc3ccc(Cl)cc3)N2Cc2ccc(Cl)cc2)cc1 (stereo unspecified) | < 3.70 | 4.46 | 
50 | CO[C@@](c1ccccc1)(c1nc(C#N)c(N)o1)C(F)(F)F | 4.10 | 3.94 | 
51 | CCOCc1ccccc1C1(O)c2ccccc2Oc2ccccc21 | < 3.70 | 3.73 | 
52 | NCCCNCc1c2ccccc2c(CNCCCN)c2ccccc12 | < 3.92 | 5.71 | 
53 | CC(=O)Nc1ccc(C(=O)NN2C(=O)C(Cl)C2c2cccc([N+](=O)[O-])c2)cc1 (stereo unspecified) | < 3.70 | 4.07 | 
54 | CCC1(O)CC(OC2CC(N(C)C)C(OC3CC4OC5CC(=O)C(C)OC5OC4C(C)O3)C(C)O2)c2c(cc3c(c2O)C(=O)c2c(O)ccc(O)c2C3=O)C1C(=O)OC (stereo unspecified) | < 5.62 | 7.81 and 7.92 | 

Row | Compound | pEC50 | pIC50 | outcome
55 | Cc1ccc(C(=O)O/N=C2/CCC/C2=C\c2ccccc2)cc1 |  |  | inactive
56 | CN1C(=S)N2CCCCCCCC2C(C#N)=C1N (stereo unspecified) | < 3.70 | < 3.70 | 
57 | COC1/C=C\OC2(C)Oc3c(C)c(O)c4c(O)c(c(/C=N\OC(C(=O)O)C(C)C)c(O)c4c3C2=O)NC(=O)/C(C)=C\C=C/C(C)C(O)C(C)C(O)C(C)C(OC(C)=O)C1C (stereo unspecified) | < 4.00 | 4.39 | 
58 | CCCn1c2c(c3ccccc3c1=O)C(=O)c1ccccc1-2 | < 4.74 | < 4.74 | 
59 | O=C1NC2(CCN(CCc3ccccc3)CC2)Oc2ccccc21 | < 3.70 | 3.72 | 
60 | Cc1ccc(S(=O)(=O)OC2C3OC(C)(C)OC3OC2C(c2cc(O)c3c(c2O)C(=O)c2ccccc2C3=O)c2cc(O)c3c(c2O)C(=O)c2ccccc2C3=O)cc1 (stereo unspecified) | < 3.70 | < 3.70 | 
61 | COC1(OC)C2C=CC1C([C@](C)(N)CO)C2 (stereo partly specified) | < 2.96 | < 2.96 | 
62 | CCOC(=O)c1ccccc1NN1C(=O)C=CC1=O | < 3.46 | 4.28 | 
63 | c1ccc(N2N=NC3C4CC(C5c6ccccc6C45)C32)cc1 (stereo unspecified) |  |  | inactive
64 | CCCCCCCCP(=O)(O)OP(=O)(O)OCC1OC(n2ccc(N)nc2=O)C(O)C1O (stereo unspecified) | < 3.70 | < 3.70 | 
65 | N=c1c2ncn3c(=O)n(-c4ccccc4)c(nc(=O)n1-c1ccccc1)c23 | < 4.84 | 5.08 | 
66 | CCOC(=O)C(=O)Nc1cccc(Cl)c1C | < 3.13 | < 3.13 | 
67 | COC[C@H](C)N=CN1CCc2ccccc2C1(Cc1ccccc1)Cc1ccccc1 | < 4.48 | < 4.48 | 
68 | COc1ccc2c(c1)C1Oc3ccccc3CC1(O)CO2 (stereo unspecified) | < 3.70 | 3.88 | 
69 | CC(=O)N1C(Nc2ccccn2)CCN1c1ccccc1 (stereo unspecified) | < 3.70 | 4.42 | 
70 | O=C1/C(=C/c2ccc(O)cc2)CC/C1=C\c1ccc(O)cc1 | < 3.70 | 4.50 | 
71 | O=C(Cc1ccccc1)N[C@@H]1COC(=O)[C@@H]2CCCN2C(=O)[C@@H]2CCCN2C1=O (HELM PEPTIDE1{[O=C(Cc1ccccc1)[*:2]].[O=C([C@@H](CO[*:3])N[*:1])[*:2]].P.P}$PEPTIDE1,PEPTIDE1,2:R3-4:R2$$$V2.0) | < 3.70 | < 3.70 | 
72 | CC(C)CCCC(C)[C@H]1CC[C@@H]2[C@H]3CC[C@H]4C[C@@H](CCC=C(c5cc(Cl)c(OCc6cccc([N+](=O)[O-])c6)c(C(=O)OCc6cccc([N+](=O)[O-])c6)c5)c5cc(Cl)c(OCc6cccc([N+](=O)[O-])c6)c(C(=O)OCc6cccc([N+](=O)[O-])c6)c5)CC[C@]4(C)[C@@H]3CC[C@]12C (stereo partly specified) | < 4.00 | < 4.00 | 
73 | Cc1nnc2c([N+](=O)[O-])c(N)c(Cl)nn12 | < 3.70 | 5.89 | 
74 | CN(C)C(=O)N(CCC#N)CCN(C(=O)N(C)C)c1ccccc1 | < 3.70 | < 3.70 | 
75 | CCCNC(=O)NS(=O)(=O)c1ccc(Cl)cc1 |  |  | inactive
76 | Cc1cccc2c(=O)c3c(O)cc(O)cc3[nH]c12 | < 3.70 | 4.84 | 
77 | COc1ccc(Cn2nc(OCc3ccccn3)c3cc([N+](=O)[O-])ccc32)cc1 | < 3.70 | < 3.70 | 
78 | CN(C(=S)Nc1ccccc1)c1cc(N2CCCC2)ccn1 | < 3.70 | 4.53 | 
79 | CC1CN(S(=O)(=O)c2cccc3cnccc23)CCN1 (stereo unspecified) | < 3.90 | 4.42 | 
80 | C#CCN(Cc1ccc2nc(-c3ccccc3)c(Cl)nc2c1)c1ccc(Cl)c(Cl)c1 | < 3.70 | < 3.70 | 
